Data: patent publication US12226443B2, “Polyphenol composition and method of its use and manufacture in the treatment of metabolic disorders” (Vidya Herbs, Inc., priority 2018, dated 2025)

Assay: DPPH scavenging assay
Details: composition at 100 μg/ml
Method: The free radical scavenging capacity of the composition was determined using DPPH scavenging assay (Braca et al. 2001). DPPH solution was prepared in 95% methanol. Freshly prepared DPPH solution was taken in test tubes and different concentration of the composition (20-100 μg/mL) were added and incubated for 20 min. The absorbance was read at 517 nm using a spectrophotometer. Blank was prepared containing the same volume of reaction mixture without any test samples. The percentage of scavenging was calculated using formula: % Scavenging=Ac−As/Ac×100 Where AC was the absorbance of the control (blank without extract) and As was the absorbance in the presence of the extract.

Q: For O=C1O[C@H]([C@@H](O)CO)C(O)=C1O [ascorbic acid], which “DPPH radical scavenging, maximum activity” value is on record?
A: 96.71%
